Measured values published in patent US6358885B1, “Substituted phenylheterocyclic herbicides” (Mississippi State University, priority 1992, dated 2002).

How the values were obtained:
velvetleaf = assay: Test C preemergence/postemergence greenhouse plant response rating 0 to 100; format: in vivo, Abutilon theophrasti; conditions: POSTEMERGENCE; for Plant response rating, Velvetleaf: 0 to 100 scale
Summary of the method: (§1)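 Compounds in non-phytotoxic solvent applied preemergence to sandy loam one day after planting, postemergence at the 1–4 leaf stage, or to ~2.5 cm floodwater over silt loam.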

wild buckwheat = assay: Test B preemergence/postemergence greenhouse plant response rating 0 to 10; format: in vivo, Polygonum convolvulus; conditions: 0 to 10 scale
Summary of the method: (§2)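 Postemergence treatment of plants two to eighteen cm tall ran alongside preemergence treatment of planted seed, each using compound in a non-phytotoxic solvent.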

sugar beet = assay: as above; format: in vivo, Beta vulgaris; conditions: 0 to 10 scale
Summary of the method: as §2

corn [1] = assay: Test C preemergence/postemergence greenhouse plant response rating 0 to 100; format: in vivo, Zea mays; conditions: POSTEMERGENCE; for Plant response rating, Corn: 0 to 100 scale
Summary of the method: as §1

barnyardgrass = assay: Test C flood test plant response rating 0 to 100; format: in vivo, Echinochloa crus-galli; conditions: for Plant response rating Barnyardgrass 2: flood test species listed under POSTEMERGENCE, 0 to 100 scale
Summary of the method: as §1

bedstraw [2] = assay: Test C preemergence/postemergence greenhouse plant response rating 0 to 100; format: in vivo, Galium aparine; conditions: POSTEMERGENCE; for Plant response rating, Bedstraw: 0 to 100 scale
Summary of the method: as §1

duck salad = assay: Test C flood test plant response rating 0 to 100; format: in vivo, Heteranthera limosa; conditions: for Plant response rating Duck salad: flood test species listed under POSTEMERGENCE, 0 to 100 scale
Summary of the method: as §1

downy brome = assay: Test C preemergence/postemergence greenhouse plant response rating 0 to 100; format: in vivo, Bromus tectorum; conditions: POSTEMERGENCE; for Plant response rating Downy Brome: 0 to 100 scale
Summary of the method: as §1

sorghum = assay: as above; format: in vivo, Sorghum bicolor; conditions: POSTEMERGENCE; for Plant response rating, Sorghum: 0 to 100 scale
Summary of the method: as §1

corn [3] = assay: Test B preemergence/postemergence greenhouse plant response rating 0 to 10; format: in vivo, Zea mays; conditions: 0 to 10 scale
Summary of the method: as §2

cotton = assay: Test C preemergence/postemergence greenhouse plant response rating 0 to 100; format: in vivo, Gossypium hirsutum; conditions: POSTEMERGENCE; for Plant response rating, Cotton: 0 to 100 scale
Summary of the method: as §1

bedstraw [4] = assay: Test B preemergence/postemergence greenhouse plant response rating 0 to 10; format: in vivo, Galium aparine; conditions: 0 to 10 scale
Summary of the method: as §2

giant foxtail = assay: Test C preemergence/postemergence greenhouse plant response rating 0 to 100; format: in vivo, Setaria faberii; conditions: POSTEMERGENCE; for Plant response rating, Giant foxtail: 0 to 100 scale
Summary of the method: as §1

chickweed = assay: Test B preemergence/postemergence greenhouse plant response rating 0 to 10; format: in vivo, Stellaria media; conditions: 0 to 10 scale
Summary of the method: as §2

wild oat = assay: Test C preemergence/postemergence greenhouse plant response rating 0 to 100; format: in vivo, Avena fatua; conditions: POSTEMERGENCE; for Plant response rating, Wild oat: 0 to 100 scale
Summary of the method: as §1

wheat = assay: as above; format: in vivo, Triticum aestivum; conditions: POSTEMERGENCE; for Plant response rating, Wheat: 0 to 100 scale
Summary of the method: as §1

morningglory = assay: as above; format: in vivo, Ipomoea hederacea; conditions: POSTEMERGENCE; for Plant response rating, Morningglory: 0 to 100 scale
Summary of the method: as §1

[5] = POSTEMERGENCE section, flood test, Rate 4 g/ha
[6] = Rate 16 g/ha, under POSTEMERGENCE head (flood test species)

CCC(C)Oc1cc(-c2nn3c(c2Cl)CCCC3)c(F)cc1Cl (stereo not shown) [Compound 48]
3: Plant response rating, Corn (corn [3]; POSTEMERGENCE, Rate 50 g/ha) | Plant response rating, Corn (corn [3]; POSTEMERGENCE, Rate 200 g/ha) | Plant response rating, Bedstraw (bedstraw [4]; PREEMERGENCE, Rate 50 g/ha)
1: Plant response rating, Corn (corn [3]; Rate 200 g/ha, PREEMERGENCE)
8: Plant response rating, Chickweed (chickweed; POSTEMERGENCE, Rate 200 g/ha)
95: Plant response rating Barnyardgrass 2 (barnyardgrass; 62 g/ha) | Plant response rating, Morningglory (morningglory; 250 g/ha)
100: Plant response rating Barnyardgrass 2 (barnyardgrass; 250 g/ha) | Plant response rating, Bedstraw (bedstraw [2]; 62 g/ha) | Plant response rating, Bedstraw (bedstraw [2]; 250 g/ha) | Plant response rating, Cotton (cotton; 62 g/ha) | Plant response rating, Cotton (cotton; 250 g/ha) | Plant response rating (0 to 100), Cotton (cotton; Rate 16 g/ha)
10: Plant response rating, Wild buckwheat (wild buckwheat; POSTEMERGENCE, Rate 50 g/ha) | Plant response rating, Wild buckwheat (wild buckwheat; Rate 200 g/ha, PREEMERGENCE) | Plant response rating, Sugar beet (sugar beet; POSTEMERGENCE, Rate 50 g/ha) | Plant response rating, Sugar beet (sugar beet; Rate 200 g/ha, POSTEMERGENCE) | Plant response rating, Sugar beet (sugar beet; Rate 200 g/ha, PREEMERGENCE) | Plant response rating (0 to 100), Corn (corn [1]; Rate 4 g/ha) | Plant response rating (0 to 100), Duck salad (duck salad; [6]) | Plant response rating (0 to 100), Wheat (wheat; Rate 4 g/ha)
9: Plant response rating, Wild buckwheat (wild buckwheat; PREEMERGENCE, Rate 50 g/ha) | Plant response rating, Wild buckwheat (wild buckwheat; Rate 200 g/ha, POSTEMERGENCE) | Plant response rating, Sugar beet (sugar beet; PREEMERGENCE, Rate 50 g/ha) | Plant response rating, Bedstraw (bedstraw [4]; POSTEMERGENCE, Rate 50 g/ha) | Plant response rating, Bedstraw (bedstraw [4]; POSTEMERGENCE, Rate 200 g/ha) | Plant response rating, Bedstraw (bedstraw [4]; Rate 200 g/ha, PREEMERGENCE) | Plant response rating, Chickweed (chickweed; POSTEMERGENCE, Rate 50 g/ha)
0: Plant response rating (0 to 100), Duck salad (duck salad; [5]) | Plant response rating (0 to 100), Downy Brome (downy brome; Rate 4 g/ha) | Plant response rating, Corn (corn [3]; PREEMERGENCE, Rate 50 g/ha)
60: Plant response rating Duck salad (duck salad; 62 g/ha) | Plant response rating, Wild oat (wild oat; 250 g/ha) | Plant response rating, Morningglory (morningglory; 62 g/ha)
20: Plant response rating (0 to 100), Barnyardgrass 2 (barnyardgrass; [5]) | Plant response rating (0 to 100), Bedstraw (bedstraw [2]; Rate 4 g/ha) | Plant response rating (0 to 100), Downy Brome (downy brome; Rate 16 g/ha) | Plant response rating (0 to 100), Giant foxtail (giant foxtail; Rate 4 g/ha) | Plant response rating (0 to 100), Wild oat (wild oat; Rate 4 g/ha) | Plant response rating (0 to 100), Wheat (wheat; Rate 16 g/ha)
40: Plant response rating, Corn (corn [1]; 62 g/ha) | Plant response rating (0 to 100), Barnyardgrass 2 (barnyardgrass; [6]) | Plant response rating (0 to 100), Bedstraw (bedstraw [2]; Rate 16 g/ha) | Plant response rating Downy Brome (downy brome; 62 g/ha) | Plant response rating (0 to 100), Sorghum (sorghum; Rate 16 g/ha) | Plant response rating, Giant foxtail (giant foxtail; 62 g/ha) | Plant response rating, Wild oat (wild oat; 62 g/ha)
70: Plant response rating Downy Brome (downy brome; 250 g/ha) | Plant response rating, Sorghum (sorghum; 250 g/ha)
30: Plant response rating (0 to 100), Velvetleaf (velvetleaf; Rate 4 g/ha) | Plant response rating (0 to 100), Corn (corn [1]; Rate 16 g/ha) | Plant response rating (0 to 100), Sorghum (sorghum; Rate 4 g/ha) | Plant response rating (0 to 100), Giant foxtail (giant foxtail; Rate 16 g/ha) | Plant response rating (0 to 100), Wild oat (wild oat; Rate 16 g/ha) | Plant response rating, Wheat (wheat; 62 g/ha) | Plant response rating (0 to 100), Morningglory (morningglory; Rate 4 g/ha)
50: Plant response rating, Corn (corn [1]; 250 g/ha) | Plant response rating, Sorghum (sorghum; 62 g/ha) | Plant response rating, Wheat (wheat; 250 g/ha) | Plant response rating (0 to 100), Morningglory (morningglory; Rate 16 g/ha)
90: Plant response rating, Velvetleaf (velvetleaf; 62 g/ha) | Plant response rating, Velvetleaf (velvetleaf; 250 g/ha) | Plant response rating (0 to 100), Cotton (cotton; Rate 4 g/ha) | Plant response rating, Giant foxtail (giant foxtail; 250 g/ha)
80: Plant response rating (0 to 100), Velvetleaf (velvetleaf; Rate 16 g/ha) | Plant response rating Duck salad (duck salad; 250 g/ha)
4: Plant response rating, Chickweed (chickweed; Rate 200 g/ha, PREEMERGENCE)
